Legend:
[1] = Rat pharmacokinetics of OA and OC in plasma and urine after oral OA alone or with CMF1; assay type: in vivo, Sprague-Dawley rats; details: in vivo, po, 30 mg/kg
Method: The study was approved by the Animal Ethics Committee of The Chinese University of Hong Kong. Male Sprague-Dawley rats (230–250 g) were utilized and supplied by the Laboratory Animal Service Center at The Chinese University of Hong Kong. The rats were housed under standard conditions of temperature, humidity, and light and randomly divided into six groups with 10–12 rats in each group. […] The dose of 1.95 g/kg CMF1 is calculated based on the human dose recommended by the Chinese physicians and a doubled dose of CMF1 at […] is also used in the current study due to the potential large dosing range for Chinese medicine adopted in the practice. […]
For dosing, OA (4 mg/mL) was freshly prepared by dissolving it in water and orally given to rats by gavage, bid (twice daily) for 4 days (9:00am and 6:00pm for each day), and CMF1 was also freshly suspended in water and then orally given to rats 2 h later of OA dosing (11:00 am and 8:00 pm for each day).
For Groups of 1 to 3, a surgery for jugular vein cannulation was performed 1 h after CMF1 second dosing on day 4. A polyethylene catheter (0.50 mm ID, 1.00 mm OD, Portex Limited, Hythe, Kent, England) was cannulated into the right jugular vein under anesthesia. After surgery, the rat was placed in separated metabolic cage and allowed to recover and fasted overnight with free access to water. In the morning of day 5, blood samples (0.2 mL each) of the rats in the Groups 1–3 were collected via the catheter at 0, 15, 30, 60, 90, 120, 180, 240, 360, and 480 min after dosing of OA. After which, 0.2 mL of normal saline containing 20 units/mL of heparin was then injected into the catheter to flush the catheter. The collected blood samples were immediately placed in heparinized tubes containing dichlorvos (5 μL of 8 mg/mL dichlorvos in normal saline) for inhibition of carboxylesterase, followed by centrifugation to obtain the plasma and stored at −80°C. Urine samples were collected over 8 h postdose and combined with water used for rinsing the metabolic cage, further diluted to 200 mL, and then stored at −80°C until assay.
The rat/human plasma and urine samples were treated and analyzed by an LC/MS/MS system as previously described. Briefly, 200 μL plasma/urine samples was mixed with cephalexin hydrate (internal standard, IS) working solution (final 2 μg/mL) and acidified with 1 mL of 10% perchloric acid in water (if necessary, dilution with blank human urine was required for urine samples). After mixing and centrifugation, the supernatant was loaded in prewashed Oasis MCX cartridge (1 cc, 30 mg, Waters) and the cartridge was rinsed subsequently with 1% formic acid, water, and methanol followed by vacuum dried for 20 min. The analytes were then eluted with 1 mL of 1% ammonia in methanol. The eluting solvent was dried by a vacuum concentrator and the residue was reconstituted with 200 μL of 0.1% formic acid : methanol (1 : 1 v/v) prior to HPLC/MS/MS analysis using an ABI 2000 Q-Trap triple quadrupole mass spectrometer (Applied Biosystems) coupled with PE-200 series micropumps and autosampler (Perkin-Elmer). The chromatographic separation was achieved by using a Nova-Pak CN HP column (75 × 3.9 mm i.d., 4 μm particle size, Waters) and the HPLC solvent system consisted of methanol (A) and 0.1% formic acid in water (B), with 50% A (for plasma samples) or 60% A (for urine samples) at 1 mL/min. The temperatures of autosampler and the analytical column were set at 4°C and ambient, respectively, and the sample injection volume was 20 μL. Prior to the mass spectrometric system, 60% of the LC eluent was split off and only 40% of the eluent was introduced into the ESI source.
The plasma/urine OA and OC concentrations versus time profiles were analyzed using WinNonlin software standard edition version 2.1 (Pharsight Corporation). […] In human study, trough concentration (C trough) was defined as the minimum concentration obtained and was obtained at 12 h post-dose. […]

[2] = Human crossover pharmacokinetic interaction study of WM (Tamiflu) alone or with CMF1; assay type: in vivo, human (Chinese male healthy volunteers); details: for AUC(0-t): AUC0–12 h; for Cmax: C max
Method: Normal healthy Chinese male subjects aged 20–45 years were recruited in this study. […] The study was conducted using a single-center, randomized, open-labeled, multiple dose (5 days), two-treatment, two-period, two-sequence crossover design. […] Each subject underwent two treatment sessions (periods I and II), and each session consists of 5-day treatment (twice daily for day 1 to day 4, morning dose for day 5). The two treatment sessions were separated by a washout period of 2 weeks. 250 mL water was used for WM (Tamiflu capsule, 75 mg per dose) administration. […] Drinking water was not allowed from 1 h predose to 1 h postdose except that needed for drug dosing. […] All blood and urine collection was taken on day 5 of each treatment session. […] Blood samples were collected from a catheter, which was placed in the forearm vein before dosing. At the specified time, 5 mL of blood was drawn (except for 0 time and at 2 h which was 10 mL each for additional antiviral activity determination) and stored in vacuette lithium heparin tubes (Greiner Bio-One). […] Plasma samples were collected after centrifugation and then stored at −80°C until assay. Urine was also collected (and the volume was recorded) at pre-dose, 0–4, 4–8, and 8–12 h intervals. […] After mixing and centrifugation, the supernatant was loaded in prewashed Oasis MCX cartridge (1 cc, 30 mg, Waters) and the cartridge was rinsed subsequently with 1% formic acid, water, and methanol followed by vacuum dried for 20 min. The analytes were then eluted with 1 mL of 1% ammonia in methanol. The eluting solvent was dried by a vacuum concentrator and the residue was reconstituted with 200 μL of 0.1% formic acid : methanol (1 : 1 v/v) prior to HPLC/MS/MS analysis using an ABI 2000 Q-Trap triple quadrupole mass spectrometer (Applied Biosystems) coupled with PE-200 series micropumps and autosampler (Perkin-Elmer). […] In human study, trough concentration (C trough) was defined as the minimum concentration obtained and was obtained at 12 h post-dose. […] In human studies, the comparison of WM + CMF1 to WM alone treatments was evaluated using a 90% confidence intervals (90% CI) approach (USFDA guideline, Drug Interactions Studies, September 2006). […] The statistical model included terms describing the effects attributable to sequence, subject (nested in sequence), period, and treatment (formulation). […] Difference in the median T max between both treatments was evaluated using Wilcoxon signed-rank test. For comparison of the human antiviral activities, one-way analysis of variance in conjunction with post hoc Turkey's range test was performed.

[3] = male, human, in vivo, geometric mean

In the case of `CCOC(=O)C1=C[C@@H](OC(CC)CC)[C@H](NC(C)=O)[C@@H](N)C1` [OA, Oseltamivir], the “AUC0–8 h” value [1] is reported as 199.85 ± 56.88 μg∗min/mL, the “AUC0–inf” value [1] is reported as 209.14 ± 60.23 μg∗min/mL and the “V d, λz/F” value [1] is reported as 23.39 ± 8.17 (L/k)g. The Cmax ([1]; male, Sprague-Dawley, C max) was 1160 ± 300 ng/mL, the CL renal ([1]; male, Sprague-Dawley, CL renal) was 6.1 ± 1.32 mL/min and the CL/F ([1]; male, Sprague-Dawley, CL/F) was 158 ± 59.6 mL/min/kg. It also gave a Tmax ([1]; male, Sprague-Dawley, T max) of 0.55 h, a half-life ([1]; male, Sprague-Dawley, t 1/2, λz) of 1.72 ± 0.146 h and a C max ([2]; human, day 5, WM + CMF1, n = 14, arithmetic mean ± SD) of 51.3 ± 17.4 ng/mL. For the same compound, the tolerability ([2]; in vivo) was “well tolerated”, the “12 h Cum. amt. in urine” value ([2]; male, human, in vivo) was 2883 ± 985 µg and the “12 h Cum. amt. in urine, geometric mean” value ([2]; male, human, in vivo) was 2745.53 µg. For the same compound, the “C max for WM + CMF1 treatment lower than that from WM alone” value ([2]; male, human, in vivo) was 21.81%, the “C max when OA was co-administered with CMF1, relative to WM alone” value ([2]; male, human, in vivo) was ~ 78% and the “time to reach peak maximum in plasma” value ([2]; male, human, in vivo) was 0.5 to 1 h. For the same compound, the AUC(0-t) ([2]; male, human, in vivo) was 134 ± 41.1 ng·h/mL, the AUC(0-t) [2, 3] was 130 ng·h/mL and the Cmax ([2]; male, human, in vivo) was 67.9 ± 27.1 ng/mL. The Cmax [2, 3] was 62.4 ng/mL, the CL renal ([2]; male, human, in vivo, Renal clearance) was 368 mL/min and the half-life ([2]; male, human, in vivo, T 1/2 (terminal half-life)) was 1.98 ± 0.4 h. It also gave a Tmax ([2]; male, human, in vivo, T max) of 0.61 ± 0.21 h and a CL renal ([2]; male, human, in vivo, renal clearance) of about 367 mL/min.

Reference: publication PMC3912631, “Bench to Bed Evidences for Pharmacokinetic and Pharmacodynamic Interactions Involving Oseltamivir and Chinese Medicine” (Evidence-based Complementary and Alternative Medicine : eCAM, 2014)
